According to patent US7452914B2, “Spiro-benzo[c]chromene derivatives useful as modulators of the estrogen receptors” (Janssen Pharmaceutica N.V., priority 2004, dated 2008):
Read-outs that look alike come from different tables or passages of the source.

What was measured:
MCF-7 cells = assay: MCF-7 Cell Proliferation Assay (14C-thymidine incorporation); format: cell-based; conditions: for IC50: 10 nM 17β-estradiol added, 14C-thymidine, read-out: Antagonist (No.); for EC50: MCF7, agonist mode, increase in 14C-thymidine relative to vehicle control, read-out: Agonist (No.)
Procedure: This assay was run according to the procedure described by Welshons, et al., (Breast Cancer Res. Treat., 1987, 10(2), 169-75), with minor modification.
Briefly, MCF-7 cells (from Dr. C. Jordan, Northwestern University) were maintained in RPMI 1640 phenol red free medium (Gibco) in 10% FBS (Hyclone), supplemented with bovine insulin and non-essential amino acid (Sigma). The cells were initially treated with 4-hydoxyltamoxifen (10^−8 M) and let stand at 37° C. for 24 hours. Following this incubation with tamoxifen, the cells were treated with compounds at various concentrations.
Compounds to be tested in the agonist mode were added to the culture media at varying concentrations. Compounds to be treated in the antagonist mode were prepared similarly, and 10 nM 17β-estradiol was also added to the culture media. The cells were incubated for 24 hours at 37° C. Following this incubation, 0.1 µCi of ^14C-thymidine (56 mCi/mmol, Amersham) was added to the culture media and the cells were incubated for an additional 24 hours at 37° C. The cells were then washed twice with Hank's buffered salt solution (HBSS) (Gibco) and counted with a scintillation counter. The increase in the ^14C-thymidine in the compound treated cells relative to the vehicle control cells were reported as percent increase in cell proliferation.

[1] = tested on: Human Endometrial Ishikawa Cells; assay: Alkaline Phosphatase Assay in Human Endometrial Ishikawa Cells; format: cell-based; conditions: alkaline phosphatase activity, chemiluminescence; for IC50: antagonist mode, 10 nM 17β-estradiol added, read-out: Antagonist (No.); for EC50: 72 h, agonist mode, 3 days incubation, read-out: Agonist (No.)
Procedure: This assay was run according to the procedure described by Albert et a., Cancer Res, […], 50(11), 330-6-10, with minor modification.
Ishikawa cells (from ATCC) were maintained in DMEM/F12 (1:1) phenol red free medium (Gibco) supplemented with 10% calf serum (Hyclone). 24 hours prior to testing, the medium was changed to DMEM/F12 (1:1) phenol red free containing 2% calf serum.
Compounds to be tested in the agonist mode were added to the culture media at varying concentrations. Compounds to be treated in the antagonist mode were prepared similarly, and 10 nM 17β-estradiol was also added to the culture media. The cells were then incubated at 37° C. for 3 days. On the fourth day, the media was remove, 1 volume of 1× Dilution Buffer (Clontech) was added to the well followed by addition of 1 volume of Assay Buffer (Clontech). The cells were then incubated at room temperature for 5 minutes. 1 volume of freshly prepared Chemiluminescence Buffer (1 volume of chemiluminescent substrate (CSPD) in 19 volume Chemiluminescent Enhancer with final concentration of CSPD at 1.25 mM; Sigma Chemical Co.) was added. The cells were incubated at room temperature for 10 minutes and then quantified on a luminometer. The increase of chemiluminescence over vehicle control was used to calculate the increase in alkaline phosphatase activity.

[2] = Homo sapiens, MCF7, antagonist mode

Row | Compound | IC50 (MCF-7 cells; antagonist mode) [nM] | IC50 [1] [nM] | EC50 (MCF-7 cells; Homo sapiens) [µM] | IC50 (MCF-7 cells; [2]) [nM] | EC50 ([1]; Homo sapiens) [µM] | IC50 ([1]; Homo sapiens) [nM]
1 | 9R*-2″,2″-Dimethyl-propionic Acid-{9-[4′-(2′-piperidinyl-ethoxy)-phenyl]-11,14-spiro[4,5]-5,6,7,8-tetrahydro-9H-benzo[c]chromen-2-yl Ester [R*-15] | 770 | 220 |  |  |  | 
2 | 9R*-2″,2″-Dimethyl-propionic Acid-{9-[4′-(2′-piperidinyl-ethoxy)-phenyl]-11,15-spiro[5,5]-5,6,7,8-tetrahydro-9H-benzo[c]chromen-2-yl Ester [R*-16] | 271 | 25.8 |  |  |  | 
3 | 9S*-2″,2″-Dimethyl-propionic Acid-{9-[4′-(2′-piperidinyl-ethoxy)-phenyl]-11,14-spiro[4,5]-5,6,7,8-tetrahydro-9H-benzo[c]chromen-2-yl Ester [S*-15] | > 10000 | > 10000 |  |  |  | 
4 | 9S*-2″,2″-Dimethyl-propionic Acid-{9-[4′-(2′-piperidinyl-ethoxy)-phenyl]-11,15-spiro[5,5]-5,6,7,8-tetrahydro-9H-benzo[c]chromen-2-yl Ester [S*-16] | > 10000 | > 10000 |  |  |  | 
5 | Oc1ccc2c(c1)O[C@H](c1ccc(OCCN3CCCCC3)cc1)C1=C2CCC2(C1)SCCS2 (stereo in doubt) [R*-11, 9R*-2-(Hydroxy)-{9-[4′-(2′-piperidinyl-ethoxy)-phenyl]-11,14-spiro[4,5]-5,6,7,8-tetrahydro-9H-benzo[c]chromene] |  |  | > 10 | 672 | > 10 | 41.9
6 | Oc1ccc2c(c1)O[C@@H](c1ccc(OCCN3CCCCC3)cc1)C1=C2CCC2(C1)SCCS2 (stereo in doubt) [S*-11, 9S*-2-(Hydroxy)-{9-[4′-(2′-piperidinyl-ethoxy)-phenyl]-11,14-spiro[4,5]-5,6,7,8-tetrahydro-9H-benzo[c]chromene] |  |  | > 10 | > 10000 | > 10 | 1020
7 | Oc1ccc2c(c1)OC(c1ccc(OCCN3CCCCC3)cc1)C1=C2CCC2(C1)SCCS2 (stereo not drawn) [Compound 11] |  |  | > 10 | 1060 | > 10 | 29.6
8 | Oc1ccc2c(c1)OC(c1ccc(OCCN3CCCCC3)cc1)C1=C2CCC2(C1)SCCCS2 (stereo not drawn) [Compound 12] |  |  | > 10 | 686 | > 10 | 35.1
9 | Oc1ccc2c(c1)OC(c1ccc(OCCN3CCCC3)cc1)C1=C2CCC2(C1)SCCS2 (stereo not drawn) [Compound 13] |  |  | > 10 | > 10000 | > 10 | 1050
10 | CCN(CC)CCOc1ccc(C2Oc3cc(O)ccc3C3=C2CC2(CC3)SCCS2)cc1 (stereo not drawn) [Compound 14] |  |  | > 10 | 4970 | > 10 | 65.9
11 | O=S1(=O)CCCS(=O)(=O)C12CCC1=C(C2)C(c2ccc(OCCN3CCCCC3)cc2)Oc2cc(O)ccc21 (stereo not drawn) [Compound 17] |  |  | > 10 | > 10000 | > 10 | > 10000
